Measurements published in patent US20250281424A1 (New York Blood Center, Inc, priority 2020, published 2025).

Target: T1, human PF4 (Homo sapiens, UniProt P02776)
T1 construct: PF4 is a 70 amino acid, lysine-rich 7.8 kDa platelet-specific protein; made in house; host or cells: Escherichia coli BL21DE3 pLysS (pT7-7) and/or Drosophila S2 cells
T1 sequence (P02776 32-101): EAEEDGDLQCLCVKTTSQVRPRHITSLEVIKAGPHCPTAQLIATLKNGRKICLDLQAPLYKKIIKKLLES
Experiment: Inhibition of PF4 tetramer formation (BS3 cross-linking, SDS-PAGE)
Assay type: biochemical
Conditions: for inhibition at 5 µM: 5 μM inhibitor; for inhibition at 5 µM / inhibition at 10 µM / inhibition at 1 µM / inhibition at 3 µM: read-out: % inhibition of PF4 tetramer formation at single concentration of inhibitor; for inhibition at 10 µM: 10 μM inhibitor (column A); for IC50: read-out: IC50 of PF4 tetramer formation inhibition; for inhibition at 1 µM: 1 μM inhibitor; for inhibition at 3 µM: 3 μM inhibitor (column A)
Outline: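 Recombinant human wild-type PF4 (E. coli-expressed, heparin-purified), 10 μg/ml in PBS, incubated with compound 15 min at 37° C or 60 min at room temperature, then cross-linked with 0.2 mM BS3 for 30 min at room temperature. Reducing 12% SDS-PAGE; bands quantified as % tetramer, trimer, dimer, monomer versus compound-free control.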

| SMILES | inhibition at 5 µM [%] | inhibition at 10 µM [%] | IC50 [nM] | inhibition at 1 µM [%] | inhibition at 3 µM [%] |
| --- | --- | --- | --- | --- | --- |
| CC(C)(C)OC(=O)N1CSC[C@H]1C(=O)C1C(=O)c2ccc(-c3ccc4c(c3)C(=O)C(C(=O)[C@@H]3CSCN3C(=O)OC(C)(C)C)C4=O)cc2C1=O (stereo partly drawn) [Example 210, tert-butyl (4R)-4-{2′-[(4R)-3-[(tert-butoxy)carbonyl]-1,3-thiazolidine-4-carbonyl]-1,1′,3,3′-tetraoxo-1H,1′H,2H,2′H,3H,3′H-[5,5′-biindene]-2-carbonyl}-1,3-thiazolidine-3-carboxylate] | 62 | 94 | ~5000 | – | – |
| C[C@@H]1CC[C@@H](C(=O)C2C(=O)c3ccc(C(=O)c4ccc5c(c4)C(=O)C(C(=O)[C@@H]4CC[C@@H](C)N4C(=O)OC(C)(C)C)C5=O)cc3C2=O)N1C(=O)OC(C)(C)C (stereo partly drawn) [Example 120B, tert-butyl (2S,5R)-2-(5-{2-[(2S,5R)-1-[(tert-butoxy)carbonyl]-5-methylpyrrolidine-2-carbonyl]-1,3-dioxo-2,3-dihydro-1H-indene-5-carbonyl}-1,3-dioxo-2,3-dihydro-1H-indene-2-carbonyl)-5-methylpyrrolidine-1-carboxylate] | 75 | 86 | – | – | – |
| CC(C)(C)OC(=O)NCC(=O)C1C(=O)c2ccc(Oc3ccc4c(c3)C(=O)C(C(=O)CNC(=O)OC(C)(C)C)C4=O)cc2C1=O (stereo not drawn) [Example 272, tert-butyl N-[2-(5-{[2-(2-{[(tert-butoxy)carbonyl]amino}acetyl)-1,3-dioxo-2,3-dihydro-1H-inden-5-yl]oxy}-1,3-dioxo-2,3-dihydro-1H-inden-2-yl)-2-oxoethyl]carbamate] | – | – | – | 26 | 56 |
| CC(C)(C)OC(=O)N1CCC[C@H]1C(=O)C1C(=O)c2ccc(C(=O)c3ccc4c(c3)C(=O)C(C(=O)[C@@H]3CCCN3C(=O)OC(C)(C)C)C4=O)cc2C1=O (stereo partly drawn) [Example 111, tert-butyl (2S)-2-(5-{2-[(2S)-1-[(tert-butoxy)carbonyl]pyrrolidine-2-carbonyl]-1,3-dioxo-2,3-dihydro-1H-indene-5-carbonyl}-1,3-dioxo-2,3-dihydro-1H-indene-2-carbonyl)pyrrolidine-1-carboxylate] | 100 | 100 | 500 | – | – |
| O=C(COC1CCCCC1)C1C(=O)c2ccc(S(=O)(=O)c3ccc4c(c3)C(=O)C(C(=O)COC3CCCCC3)C4=O)cc2C1=O (stereo not drawn) [Example 232, 2-[2-(cyclohexyloxy)acetyl]-5-({2-[2-(cyclohexyloxy)acetyl]-1,3-dioxo-2,3-dihydro-1H-inden-5-yl}sulfonyl)-2,3-dihydro-1H-indene-1,3-dione] | – | – | – | 10 | 67 |
| CC(C)(C)OC(=O)N1CCCC[C@@H]1C(=O)C1C(=O)c2ccc(Oc3ccc4c(c3)C(=O)C(C(=O)[C@H]3CCCCN3C(=O)OC(C)(C)C)C4=O)cc2C1=O (stereo partly drawn) [Example 274, tert-butyl (2R)-2-[5-({2-[(2R)-1-[(tert-butoxy)carbonyl]piperidine-2-carbonyl]-1,3-dioxo-2,3-dihydro-1H-inden-5-yl}oxy)-1,3-dioxo-2,3-dihydro-1H-indene-2-carbonyl]piperidine-1-carboxylate] | – | – | – | 21 | 60 |
| CC(C)OC(=O)N1CCC[C@H]1C(=O)C1C(=O)c2ccc(C(=O)c3ccc4c(c3)C(=O)C(C(=O)[C@@H]3CCCN3C(=O)OC(C)C)C4=O)cc2C1=O (stereo partly drawn) [Example 134, propan-2-yl (2S)-2-(5-{1,3-dioxo-2-[(2S)-1-[(propan-2-yloxy)carbonyl]pyrrolidine-2-carbonyl]-2,3-dihydro-1H-indene-5-carbonyl}-1,3-dioxo-2,3-dihydro-1H-indene-2-carbonyl)pyrrolidine-1-carboxylate] | – | – | 1100 | – | – |
| CC(C)(C)OC(=O)N[C@@H](Cc1ccccc1)C(=O)C1C(=O)c2ccc(C(=O)c3ccc4c(c3)C(=O)C(C(=O)[C@H](Cc3ccccc3)NC(=O)OC(C)(C)C)C4=O)cc2C1=O (stereo partly drawn) [Example 157, tert-butyl N-[(2S)-1-(5-{2-[(2S)-2-{[(tert-butoxy)carbonyl]amino}-3-phenylpropanoyl]-1,3-dioxo-2,3-dihydro-1H-indene-5-carbonyl}-1,3-dioxo-2,3-dihydro-1H-inden-2-yl)-1-oxo-3-phenylpropan-2-yl]carbamate] | 100 | 100 | 1200 | – | – |
| COCCOCCNCC(=O)C1C(=O)c2ccc(S(=O)(=O)c3ccc4c(c3)C(=O)C(C(=O)CNCCOCCOC)C4=O)cc2C1=O (stereo not drawn) [Example 397, 2-(2-{[2-(2-methoxyethoxy)ethyl]amino}acetyl)-5-{[2-(2-{[2-(2-methoxyethoxy)ethyl]amino}acetyl)-1,3-dioxo-2,3-dihydro-1H-inden-5-yl]sulfonyl}-2,3-dihydro-1H-indene-1,3-dione] | – | – | – | 2 | 9 |
| CC(C)(C)OC(=O)N1CC[C@@H](C(=O)C2C(=O)c3ccc(C(=O)c4ccc5c(c4)C(=O)C(C(=O)[C@@H]4CCN(C(=O)OC(C)(C)C)C4)C5=O)cc3C2=O)C1 (stereo partly drawn) [Example 375, tert-butyl (3R)-3-(5-{2-[(3R)-1-[(tert-butoxy)carbonyl]pyrrolidine-3-carbonyl]-1,3-dioxo-2,3-dihydro-1H-indene-5-carbonyl}-1,3-dioxo-2,3-dihydro-1H-indene-2-carbonyl)pyrrolidine-1-carboxylate] | – | – | – | 14 | 32 |
| CC(C)(C)OC(=O)N1CC[C@H]1C(=O)C1C(=O)c2ccc(C(=O)c3ccc4c(c3)C(=O)C(C(=O)[C@@H]3CCN3C(=O)OC(C)(C)C)C4=O)cc2C1=O (stereo partly drawn) [Example 115, tert-butyl (2S)-2-(5-{2-[(2S)-1-[(tert-butoxy)carbonyl]azetidine-2-carbonyl]-1,3-dioxo-2,3-dihydro-1H-indene-5-carbonyl}-1,3-dioxo-2,3-dihydro-1H-indene-2-carbonyl)azetidine-1-carboxylate] | – | – | 3300 | – | – |
| O=C(c1ccc2c(c1)C(=O)C(C(=O)Nc1cc(Cl)nc(Cl)c1)C2=O)c1ccc2c(c1)C(=O)C(C(=O)Nc1cc(Cl)nc(Cl)c1)C2=O (stereo not drawn) [Example 17, 5,5′-carbonylbis(1,3-dioxo-indan-2-carboxylic acid (2,6-dichloro-pyridin-4-yl)-amide)] | – | – | 1080 | – | – |
| COCCOCCC(=O)C1C(=O)c2ccc(S(=O)(=O)c3ccc4c(c3)C(=O)C(C(=O)CCOCCOC)C4=O)cc2C1=O (stereo not drawn) [Example 178, 2-[3-(2-methoxyethoxy)propanoyl]-5-({2-[3-(2-methoxyethoxy)propanoyl]-1,3-dioxo-2,3-dihydro-1H-inden-5-yl}sulfonyl)-2,3-dihydro-1H-indene-1,3-dione] | 22 | 75 | – | – | – |
| CC(=O)NCC(=O)C1C(=O)c2ccc(S(=O)(=O)c3ccc4c(c3)C(=O)C(C(=O)CNC(C)=O)C4=O)cc2C1=O (stereo not drawn) [Example 175, N-[2-(5-{[2-(2-acetamidoacetyl)-1,3-dioxo-2,3-dihydro-1H-inden-5-yl]sulfonyl}-1,3-dioxo-2,3-dihydro-1H-inden-2-yl)-2-oxoethyl]acetamide] | 90 | 97 | 1100 | – | – |
| O=C(c1ccc2c(c1)C(=O)C(C(=O)Nc1ccc(Cl)cc1Cl)C2=O)c1ccc2c(c1)C(=O)C(C(=O)Nc1ccc(Cl)cc1Cl)C2=O (stereo not drawn) [Example 80, N-(2,4-dichlorophenyl)-5-{2-[(2,4-dichlorophenyl)carbamoyl]-1,3-dioxo-2,3-dihydro-1H-indene-5-carbonyl}-1,3-dioxo-2,3-dihydro-1H-indene-2-carboxamide] | 90 | 90 | – | – | – |
| CC(C)(C)OC(=O)N[C@@H](C(=O)C1C(=O)c2ccc(S(=O)(=O)c3ccc4c(c3)C(=O)C(C(=O)[C@H](NC(=O)OC(C)(C)C)c3ccccc3)C4=O)cc2C1=O)c1ccccc1 (stereo partly drawn) [Example 182] | 74 | 88 | 5700 | – | – |
| COC(=O)[C@H]1CCCCC1C(=O)C1C(=O)c2ccc(C(=O)c3ccc4c(c3)C(=O)C(C(=O)C3CCCC[C@@H]3C(=O)OC)C4=O)cc2C1=O (stereo in doubt) [Example 256, methyl (1S)-2-(5-{2-[(2S)-2-(methoxycarbonyl)cyclohexanecarbonyl]-1,3-dioxo-2,3-dihydro-1H-indene-5-carbonyl}-1,3-dioxo-2,3-dihydro-1H-indene-2-carbonyl)cyclohexane-1-carboxylate] | – | – | – | 13 | 32 |
| CSCCCC(=O)C1C(=O)c2ccc(S(=O)(=O)c3ccc4c(c3)C(=O)C(C(=O)CCCSC)C4=O)cc2C1=O (stereo not drawn) [Example 285, 2-[4-(methylsulfanyl)butanoyl]-5-({2-[4-(methylsulfanyl)butanoyl]-1,3-dioxo-2,3-dihydro-1H-inden-5-yl}sulfonyl)-2,3-dihydro-1H-indene-1,3-dione] | – | – | 3000 | 33 | 49 |
| CCOC(=O)CCNC(=O)C1C(=O)c2ccc(C(=O)c3ccc4c(c3)C(=O)C(C(=O)NCCC(=O)OCC)C4=O)cc2C1=O (stereo not drawn) [Example 27, 5,5′-carbonylbis(3-[(1,3-dioxo-indane-2-carbonyl)-amino]-propionic acid ethyl ester)] | – | – | 10800 | – | – |
| O=C(O)CC(=O)C1C(=O)c2ccc(S(=O)(=O)c3ccc4c(c3)C(=O)C(C(=O)CC(=O)O)C4=O)cc2C1=O (stereo not drawn) [Example 404, 3-(5-{[2-(2-carboxyacetyl)-1,3-dioxo-2,3-dihydro-1H-inden-5-yl]sulfonyl}-1,3-dioxo-2,3-dihydro-1H-inden-2-yl)-3-oxopropanoic acid] | – | – | – | 24 | 28 |
